This note sets out measurements from US8246981B2, “Transdermal method and patch for emesis” (Abeille Pharamaceuticals, Inc., priority 2005, dated 2012).

The conditions of this data set: IV bolus, once-daily 2 mg/day.

Method: A randomized crossover clinical study was conducted in 11 individuals who received either a transdermal patch or an IV solution of granisetron. […] This was followed by a 10 day wash-out period, after which the same individuals received granisetron IV in once-daily dosages of 2 mg/day Individuals who received the IV treatment in the first period received a transdermal patch in the cross over treatment. Blood plasma levels of granisetron for all of the individuals in the test were measured periodically during the 96 hour time that the patches were being worn and the IV dosages were being administered, and for an additional 2 days after the patches were removed and the IV administration discontinued.

On to `CN1C2CCCC1CC(NC(=O)c1nn(C)c3ccccc13)C2` (stereo not shown) [IV granisetron, granisetron], for which the “blood plasma level profile” value is “sharp spikes in blood plasma levels”.
